Here are results for seven molecules from patent US7635720B2, “Prostaglandin analog compositions to treat epithelial-related conditions” (Meta Cosmetics, LLC, priority 2007, dated 2009).

Structures are written as SMILES. Several values for one entry are separate records, joined by “and”; a condition that tells them apart may be missing. Equal values may be shown once. Entries after “also recorded” stand apart in the source; their conditions may differ. Some results are limits rather than exact numbers.

In one data set the test system is eyebrows. The experiment in a line: Use for restoring eyebrows: transparent gel applied nightly at the browbone, volunteers. The data set is classed as in vivo, human. The source says: A composition prepared according to the present invention is formulated as a transparent gel as described in the two described embodiments of Example 2. The formulation comprises water, at least one prostaglandin analog according to the present invention (concentration about 0.001% to about 0.05% w/w of the composition); a thickener, optionally a hair stimulating agent; caffeine, and at least one penetrating agent and the pH adjusted to 7.2. The gel is applied by brush as a line at the browbone every night on clean, oil-free brows in the absence of makeup. The gel is sufficiently aqueous to spread to the hair follicles but thick enough not to drip.
(§1) Test formulations contained either 0.025% or 0.05% 16-phenoxy PGF2α cyclopropyl amide. The formulation containing 0.025% 16-phenoxy PGF2α cyclopropyl amide was used on the left side, and the formulation containing 0.05% 16-phenoxy PGF2α cyclopropyl amide was used on the right side. Test formulations were given randomly to volunteers without consideration of coloration of eyelashes, race, ethnicity or sex.

Data set [1] can be described thus: Bovine cornea hydrolysis assay. The data set is classed as in vitro ADME. The following applies: for % Hydrolyzed after 12 hr (negative control): PBS pH 7.4 only, no cornea, 37° C.; for % Hydrolyzed after 12 hr, Avg: average of cornea samples 1-3; for % Hydrolyzed after 12 hr: one bovine cornea in 10 ml PBS pH 7.4, 37° C., 250 μg compound, individual cornea samples 1-3. The source says:
A bovine cornea hydrolysis test system (K. M. Maxey, et al., “The Hydrolysis of Bimatoprost in Corneal Tissue Generates a Potential Prostanoid FP Receptor Agonist,” Survey of Ophthalmology, 47 (Suppl 1):S34-40 (2002)) has been used to determine whether four test compounds of the present invention, namely 16-phenoxy PGF2α cyclopropyl amide; 17-phenyl trinor PGF2α cyclopropyl amide; 16-phenoxy PGF2α cyclopropyl methyl amide; and 17-phenyl trinor PGF2α cyclopropyl methyl amide, react similarly to bimatoprost in this test system.
Bovine corneas are excised within 1-2 hour of death. For each compound tested, one cornea (0.6 g) is placed into an 18 mm×150 mm glass test tube containing 10 ml of phosphate-buffered saline (“PBS”) at pH 7.4. The compound of interest (250 μg in about 120 μl ethanol) is added to each test tube containing a cornea and to a tube containing only 10 ml of PBS (no cornea), which served as a negative control. Test tubes are covered with parafilm and incubated at 37° C. with shaking.
After the first time point, a 5 ml aliquot is removed from each test tube and transferred into another marked test tube. The remaining material continues to incubate at 37° C. until subsequent test time point(s) is/are reached. For each test tube, 1.0 ml of 5% KHSO4 is added to bring the pH down to about 3 and sufficient NaCl is added to saturate the solution; the solution then is extracted three times with 80% ethyl acetate-hexane. The solvent is evaporated under nitrogen, dissolved in 200 μl of 80% ethyl acetate-hexane, and the 200 μl sample then transferred to a 2 ml screw cap vial. Samples are stored at −20° C. until run on an HPLC column.
After the second time point, the cornea is removed from each experimental test tube. For each test tube, 1.0 ml of 5% KHSO4 is added to bring the pH down to about 3 and sufficient NaCl added to saturate the solution; the solution then is extracted three times with 80% ethyl acetate-hexane. The solvent is evaporated under nitrogen, dissolved in 200 μl of 80% ethyl acetate-hexane, and the 200 μl sample then transferred to 2 ml screw cap vials. Samples are stored at −20° C. until they are run on an HPLC column.
For HPLC, samples are run on a Beckman Ultrasphere ODS analytical C18 HPLC column (5μ, 4.6 mm×25 cm) at 1 ml/min using either 60:40:0.1 or 70:30:0.1 methanol:water:acetic acid as solvent. Absorbance is monitored at 210 nm.

Data set [2] deals with eyelashes. The experiment in a line: Use for restoring eyelashes: transparent gel applied nightly at the skin-eyelash border, volunteers. The format is in vivo, human.
Source text: In one embodiment, the composition of the present invention is a transparent gel formulated according to Table 2. The formulation comprises water, at least one prostaglandin analog according to the present invention (concentration about 0.001% to about 0.05% w/w of the composition); a thickener, optionally a hair stimulating agent; caffeine, and at least one penetrating agent and the pH adjusted to 7.2. The gel is applied as a fine line at the skin-eyelash border every night on clean dry eyes. The gel is aqueous enough to spread to the hair follicles but thick enough not to drip.
In another embodiment, the composition is a transparent gel formulated to comprise at least one of 16-phenoxy PGF2α cyclopropyl amide; 17-phenyl trinor PGF2α cyclopropyl amide; 16-phenoxy PGF2α cyclopropyl methyl amide; or 17-phenyl trinor PGF2α cyclopropyl methyl amide (concentration about 0.001% to about 0.05% w/w of the composition) plus the following ingredients (Table 3):
as §1

The subject of data set [3] is eyelashes. The following applies: background statement; cited from earlier work.
Setting [4] is: 0.025% formulation left, 0.05% right.
Setting [5] is: gel 0.025% / 0.05% nightly, single subject.

Turning to `O=C(CCC/C=C\C[C@@H]1[C@@H](/C=C/[C@@H](O)COc2ccccc2)[C@H](O)C[C@@H]1O)NC1CC1` [16-phenoxy PGF2α cyclopropyl amide, 16-phenoxy tetranor PGF2α cyclopropyl amide], in the data set with eyebrows (setting [4]), the “left side (0.025%) versus right side (0.05%), eyebrows” value was “no significant difference”. Moreover, the “eyebrow hair result (in words)” value in the data set with eyebrows (gel 0.025% (left) / 0.05% (right) nightly, single subject) was “noticeable increase in number of hairs and color after 2 weeks; also recorded: Hairs started to fill in”. In addition, the “% Hydrolyzed after 12 hr (negative control)” value in data set [1] is 0%. In data set [1], the “% Hydrolyzed after 12 hr, Avg” value amounted to 1.78%. For the same molecule, the “% Hydrolyzed after 12 hr” value in data set [1] was 2.0% and 1.89% and 1.44%. Moreover, the “left side (0.025%) versus right side (0.05%), eyelashes” value in the data set with eyelashes [2] (setting [4]) is “no significant difference; also recorded: Right side was faster to grow; also recorded: Subject thought right side was better; also recorded: Subject thought left side was better”. Moreover, the “increase in eyelash length” value with eyelashes [2] (gel 0.025% (left) / 0.05% (right) nightly, single subject, final result or time not given) was “about 55% and approximately 80% and approximately 45% and 50% and 45% and approximately 60% and 100% and 45-50%”; in the data set with eyelashes [2] (gel 0.025% / 0.05% nightly, single subject, 3 weeks), 40% and 30%; in the data set with eyelashes [2] (gel 0.025% / 0.05% nightly, single subject, 4 weeks) it was “about 50% and 50% and approximately 60%”; in the data set on eyelashes [2] (gel 0.025% / 0.05% nightly, single subject, 5 weeks), “Approximately 60%; also recorded: about 100%; also recorded: approximately 45%”; in the data set with eyelashes [2] (gel 0.025% / 0.05% nightly, single subject, 6 weeks), 100% and ~45% and 50%; in the data set on eyelashes [2] (gel 0.025% / 0.05% nightly, single subject, after two months) it was “approximately 55%”. In addition, the “eyelash appearance (in words)” value in the data set on eyelashes [2] (setting [5]) was “darker, fuller and showed an upward curving angle of growth; also recorded: much thicker, fuller, longer and curvier than before use; also recorded: Lashes grew so much that by week 4 the test was discontinued because eyelashes were too long; also recorded: darker, fuller, and longer; also recorded: thicker and darker and curled upwards; also recorded: much thicker after 2 weeks; also recorded: much darker, thicker; also recorded: darker, and curved upwards; also recorded: longer, thicker and darker; also recorded: bushy, very thick, dark; also recorded: eyelashes had grown to the point of clear visibility below lids; also recorded: darker, thicker and lashes curled up; also recorded: darker and more upturned; also recorded: Noticeable improvement after 4 weeks even without mascara”. Besides, the “time by which increase in eyelash length / growth was obvious” value in the data set on eyelashes [2] (setting [5]) was “about 3 weeks and ≤ 3 weeks and ≤ 2 weeks”. The “time to some thickening of eyelashes” value in the data set on eyelashes [2] (setting [5]) was not above 10 days. Further, the “increase in numbers of eyelashes” value in the data set with eyelashes [2] (gel 0.025% / 0.05% nightly, single subject, final or peak result) is 60% and 30% and 50%. The “increase in eyelash thickness” value with eyelashes [2] (gel 0.025% / 0.05% nightly, single subject, final result) was “approximately doubled and approximately 60% and 100% and ~100%”. In addition, the “tolerability of the product” value in the data set on eyelashes [2] (subjects with dry eye) was “tolerated the product well”.
As for `O=C(CCC/C=C\C[C@@H]1[C@@H](/C=C/[C@@H](O)COc2ccccc2)[C@H](O)C[C@@H]1O)NCC1CC1` [16-phenoxy tetranor PGF2α cyclopropyl methyl amide], in data set [1], the “% Hydrolyzed after 12 hr (negative control)” value is recorded as 0%; the “% Hydrolyzed after 12 hr, Avg” value is 1.22%; the “% Hydrolyzed after 12 hr” value is 1.28% and 1.18% and 1.2%.
With `O=C(CCC/C=C\C[C@@H]1[C@@H](/C=C/[C@@H](O)CCc2ccccc2)[C@H](O)C[C@@H]1O)NCC1CC1` [17 phenyl trinor PGF2α cyclopropyl methyl amide], in data set [1], the “% Hydrolyzed after 12 hr (negative control)” value is recorded as 0%; the “% Hydrolyzed after 12 hr, Avg” value is 0.91%; the “% Hydrolyzed after 12 hr” value was 0.83% and 0.8% and 1.1%.
As for `O=C(CCC/C=C\C[C@@H]1[C@@H](/C=C/[C@@H](O)CCc2ccccc2)[C@H](O)C[C@@H]1O)NC1CC1` [17-phenyl trinor PGF2α cyclopropyl amide, 17 phenyl trinor PGF2α cyclopropylamide], in data set [1], the “% Hydrolyzed after 12 hr (negative control)” value turned out to be 0%; the “% Hydrolyzed after 12 hr, Avg” value came to 1.82%; the “% Hydrolyzed after 12 hr” value is 1.31% and 2.0% and 2.15%.
Take `CCNC(=O)CCC/C=C\C[C@@H]1[C@@H](/C=C/[C@@H](O)CCc2ccccc2)[C@H](O)C[C@@H]1O` [Bimatoprost, cyclopentane N-ethyl heptenamide-5-cis-2-(3α-hydroxy-5-phenyl-1-trans-pentenyl)-3,4-dihydroxy, [1α, 2β, 3α, 5α]]: in the data set on eyelashes [3], the “effect on eyelash growth (in words)” value was “effective to increase the growth of eyelashes”; the incidence of hyperemia result is recorded as “highest incidence of hyperemia”; the negative side effects entry is “redness and discoloration along the periocular skin; eye irritation; and foreign body sensation”.
For `CC(C)OC(=O)CCC/C=C\C[C@@H]1[C@@H](CC[C@@H](O)CCc2ccccc2)[C@H](O)C[C@@H]1O` [Latanoprost], the “effect on eyelash growth (in words)” value in the data set with eyelashes [3] is given as “works poorly on eyelashes”.
For `CC(C)OC(=O)CCC/C=C\C[C@@H]1[C@@H](/C=C/[C@@H](O)COc2cccc(C(F)(F)F)c2)[C@H](O)C[C@@H]1O` [Travaprost, isopropyl (Z)-7-[(1R,2R,3R,5S)-3,5-dihydroxy-2-[(1E,3R)-3-hydroxy-4-[(α,α,α-trifluoro-m-tolyl)oxy]-1-butenyl]cyclopentyl]-5-heptenoate], in the data set on eyelashes [3], the “effect on eyelash growth (in words)” value was “does not work well for eyelash growth, taking longer than other like products”.
